Assay results reported in US6869625B2, “Method of treating diabetes using plant argyrolobium roseum extract, and a process for the isolation of extract from the said plant” (Council of Scientific and Industrial Research, priority 2001, dated 2005).

System: normal, 18 h fasting, glucose loaded & streptozotocin induced hyperglycaemic rats
Assay: hypoglycaemic activity (blood sugar) in rats after oral dosing
Type: in vivo
Procedure: 1 kg of A. roseum (whole plant) is shade dried and powdered. The powdered plant material was extracted with ethyl alcohol (5 litres) for 20 hours. The alcohol extract was vacuum dried. The yield was 91 gms. The dried alcoholic extract was macerated successively with hexane and chloroform to give 8.2 gms. and 39.3 gms. of the extracts respectively. A flavonoid glycoside (230 mgs) was isolated from the chloroform extract by repeated column chromatography over silica gel of mesh size 60-120 micron. […] The onset of effect within ½ h and the effect lasted for more than five hours. The fall of blood sugar recorded with above dose was 26 mg/dl (n=24) as compared to fall of 17 & 23 mg/dl recorded with tolbutamide, 50 mg/kg p.o. (n=9) and glipizide, 0.5 mg/kg p.o. (n=8) respectively in 18 h fasting rats.

## Cc1cnc(C(=O)NCCc2ccc(S(=O)(=O)NC(=O)NC3CCCCC3)cc2)cn1 [glipizide]
0.5 mg/kg p.o., 18 h fasting rats (n=8)
  fall of blood sugar: 23 mg/dL

## CCCCNC(=O)NS(=O)(=O)c1ccc(C)cc1 [tolbutamide]
50 mg/kg p.o., 18 h fasting rats (n=9)
  fall of blood sugar: 17 mg/dL
